EC50, IC50 and outcome data for 72 compounds are collected here from PubChem BioAssay AID179 (DTP/NCI, 2004).

This test deals with CEM cells HIV-1 protection, formazan growth assay. Put plainly: NCI AIDS Antiviral Assay. Conditions: for IC50: measured here: growth of uninfected CEM cells. The procedure, abridged: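 Steps: treat uninfected and HIV-1-infected human CEM cells at five drug levels; quantify growth by soluble formazan; retest any compound reaching 50% protection; classify actives from the retest.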

The source made the active and inactive calls.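 How the source made its calls: active means compounds giving half or more protection of infected cells from virus-caused growth loss, again on retest; inactive means the rest.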

Broadly, the EC50 is the concentration needed to bring the measured effect to its halfway point. The IC50 is the midpoint of a concentration-inhibition curve. Read a high IC50 as lower potency. For `NCCCNCCCCN1CC1`, the EC50 is over 200 µM and the IC50 came out at 1.17 µM.
Turning to `CCOC(=O)CCCCCNc1nc(Cl)nc(Cl)n1`, the EC50 is over 200 µM and the IC50 was over 200 µM.
Take `CC(=O)OC(OC(C)=O)c1c2ccccc2cc2ccccc12`: the EC50 is over 200 µM and the 50% inhibitory concentration (IC50) stood at 9.77 µM.
For `COc1ccc(-c2cc(-c3ccco3)c(C#N)c(=O)[nH]2)cc1` the same measures were over 24.5 µM and over 24.5 µM.
Consider `O=C1CCCC/C1=C/C=C/c1ccccc1`, for which the EC50 was over 64.6 µM and the IC50 is over 64.6 µM.
For the compound `CN(C)P1(=O)N(c2ccccc2)P(=O)(N(C)C)N1c1ccccc1` (stereo not drawn), the EC50 was over 224 µM and the IC50 is over 224 µM.
Take `CC1=C(C(=O)CC(=O)C(=O)Nc2ccc(C)c(C)c2)Sc2ccccc2N1`: the EC50 is over 6.92 µM and the IC50 was over 6.92 µM.
`N=C(N)c1ccc2oc3ccc(C(=N)N)cc3c(=O)c2c1`: the result was inactive.
The same measure, in the same setting: to `O=[N+]([O-])c1cccc(-c2nc3ccccc3[nH]2)c1` belongs “inactive”.
Turning to `COC(=O)[C@H](NC(=O)OC(C)(C)C)[C@H]1COC(C)(C)O1`, the EC50 was over 200 µM and the IC50 is over 200 µM.
With `Cc1cc(NS(=O)(=O)c2ccc(Nc3c4ccccc4nc4c(C(=O)NCCN(C)C)ccc(Cl)c34)cc2)no1`, the outcome was inactive.
Turning to `O=C1C(=O)c2ccccc2C(O)=C1Sc1ccc(Cl)cc1`, the EC50 is over 200 µM and the half-maximal inhibitory concentration (IC50) came out at 17.4 µM.
Regarding `CCOC(=O)C(c1ccccc1)c1cccc(C(C(=O)OCC)c2ccccc2)n1` (stereo not drawn), the EC50 is over 17.8 µM and the IC50 was over 17.8 µM.
On to `CCOC(=O)CCC(NC(=O)c1ccc(Oc2nc3c(N)cc(C(F)(F)F)cc3nc2-c2ccccc2)cc1)C(=O)OCC` (stereo not drawn), for which the EC50 is over 200 µM and the concentration for half-maximal inhibition (IC50) is 112 µM.
Regarding `c1ccc(C2N=NN(c3ccccc3)C2N2CCCCC2)cc1` (stereo not drawn), the result was inactive.
On to `CC(C)NCC(O)c1ccc(OCc2ccccc2)c(OCc2ccccc2)c1-c1ccccc1` (stereo not drawn), for which the EC50 was over 200 µM and the IC50 turned out to be 3.09 µM.
Consider `O=c1[nH]c(=O)n(C2CC(O)C(CO)O2)cc1OS(=O)(=O)C(F)(F)F` (stereo not drawn), for which the EC50 is over 661 µM and the IC50 was 9.77 µM.
Turning to `C[C@]12C=CC(=O)C=C1CC[C@@H]1[C@@H]2CC[C@]2(C)OC(=O)CC[C@@H]12`, the EC50 was over 832 µM and the IC50 is 224 µM.
With `CCCCn1c(-c2ccccc2)cs/c1=N\Nc1nc2c(c(=O)n(C)c(=O)n2C)n1C`, the EC50 is over 200 µM and the 50% inhibitory concentration (IC50) came to 10.7 µM.
`NNC(=O)CC(=O)N(C(=O)c1ccccc1)c1ccc(Cl)cc1`: the EC50 was over 200 µM and the IC50 was over 200 µM.
In the case of `Nc1[nH]c(=O)[nH]c(=O)c1N=O`, the EC50 is over 200 µM and the IC50 was over 200 µM.
On to `Brc1ccc(-c2nnc(-c3nn(-c4ccccc4)c4nc5ccccc5nc34)o2)cc1`, for which the EC50 is over 8.13 µM and the IC50 was over 8.13 µM.
Turning to `Cc1c(C(=O)CC(=O)C(=O)Nc2ccccc2C(F)(F)F)[n+](=O)c2ccccc2n1[O-]`, the EC50 was over 4.57 µM and the IC50 was over 4.57 µM.
Consider `CC(=O)Nc1ccc2oc3ccc(Cl)cc3c(=O)c2c1`, for which the EC50 is over 174 µM and the IC50 was 77.6 µM.
`CCn1c(=N)sc2nc3ccccc3n2c1=O`: the EC50 was over 200 µM and the IC50 was determined as 58.9 µM.
Taken in the same sequence, the figures for `Cc1ccc(NC(=O)/C(Cc2cc(=O)oc3cc(O)ccc23)=N\NC(C)(C)C)cc1C` were over 17 µM and over 17 µM.
Take `CCOC(=O)NC(Nc1ccc(C(=O)O)cc1)(C(F)(F)F)C(F)(F)F`: the EC50 is over 200 µM and the concentration for half-maximal inhibition (IC50) was over 200 µM.
In the case of `CC(O)C(NC(=O)c1ccccc1)C(=O)N(Cc1ccccc1)Cc1ccccc1` (stereo not drawn), the EC50 is over 17.8 µM and the IC50 was over 17.8 µM.
On to `Cc1ccc(S(=O)(=O)NC(=O)n2ccnc2C)cc1`, for which the EC50 was over 891 µM.
On to `CC1(C)[C@H]2CC[C@]1(C)[C@H](OC(=O)NNC(=O)O[C@@H]1C[C@@H]3CC[C@@]1(C)C3(C)C)C2`, for which the EC50 was over 200 µM and the IC50 worked out at 12.6 µM.
Turning to `c1ccc(CCN(CCc2ccccn2)CCc2ccccn2)nc1`, the EC50 was over 200 µM and the IC50 was over 100 µM.
In the case of `COc1cccc2c1OC1c3ccccc3OCC1(O)C2` (stereo not drawn), the result was inactive.
Take `Cc1ccc(C(=O)CCC2C(=O)CC(C)(C)CC2=O)cc1`: the EC50 is over 91.2 µM and the half-inhibitory concentration (IC50) was determined as 64.6 µM.
On to `CC(=O)Nc1ncc([N+](=O)[O-])s1`, for which the EC50 is over 200 µM and the IC50 was over 200 µM.
On to `C#CCNC(=O)NCCCC(NC(C)=O)C(=O)NCc1ccccc1` (stereo not drawn), for which the result was inactive.
For `Nc1nn2c(C(Br)Br)cc(C(Br)Br)nc2c1[N+](=O)[O-]`, the EC50 is over 200 µM and the IC50 amounted to 0.525 µM.
Regarding `CC(C)(C)OC(=O)NC(CCCCNC(=O)OCc1ccccc1)C(=O)NCCNc1ccc(NCCNC(=O)C(CCCCNC(=O)OCc2ccccc2)NC(=O)OC(C)(C)C)c2c1C(=O)c1ccccc1C2=O` (stereo not drawn), the EC50 was over 151 µM and the IC50 came to 8.51 µM.
Take `O=C(O)Cn1c(=O)ccc2ccccc21`: the EC50 is over 200 µM and the IC50 was over 200 µM.
In the case of `Clc1ccc([S+](c2ccc(Cl)cc2)C(Cl)(Cl)C(Cl)(Cl)Cl)cc1`, the EC50 was over 52.5 µM and the IC50 is 7.24 µM.
For `COc1ccc(NC(=O)Oc2ccc3c(C)cc(=O)oc3c2)c(OC)c1` (tested in a mixture with another compound) the same measures were over 100 µM and 46.8 µM.
Taken in the same sequence, the figures for `CC(CN1CCCC1)C(O)(Cc1ccccc1)c1ccc(Cl)cc1` (stereo not drawn) were over 200 µM and 30.9 µM.
On to `O=C(CC(=O)n1nc(-c2ccccc2)c(N=Nc2ccccc2C(=O)O)c1-c1ccccc1)Nc1ccc(Cl)cc1`, for which the EC50 is over 200 µM and the IC50 amounted to 77.6 µM.
Turning to `CN(CCCn1ccnc1[N+](=O)[O-])CCCn1ccnc1[N+](=O)[O-]`, the EC50 is over 200 µM and the half-maximal inhibitory concentration (IC50) came out at 83.2 µM.
Taken in the same sequence, the figures for `Nc1ncc2ncn(C3CCC(CO)O3)c2n1` (stereo not drawn) were over 200 µM and over 200 µM.
Take `CC(=O)Nc1c(C)cc2c(nc3n2CCC3O)c1[N+](=O)[O-]` (stereo not drawn): the EC50 was over 200 µM and the IC50 is over 200 µM.
Consider `Cc1[nH]c2ccccc2c1C1Cc2ccccc2N1C(=O)/C(Cl)=C/c1ccccc1` (stereo not drawn), for which the EC50 is over 6.61 µM and the IC50 was over 6.61 µM.
As for `O=c1[nH]c2ccc(CC(=S)N3CCOCC3)cc2s1`, the EC50 was over 200 µM and the IC50 was over 200 µM.
On to `COC1C=CC(C(=O)[N+]2=Cc3[nH]c4ccccc4c3CC2)O1` (stereo not drawn), for which the EC50 is over 251 µM and the IC50 came out at 85.1 µM.
`COC(OC)C1OC(CO)C(n2ccc(N)nc2=O)C1O` (stereo not drawn): the EC50 is over 200 µM and the concentration for half-maximal inhibition (IC50) was over 200 µM.
With `CC(=O)c1ccc2c(c1)CC1(C2)Cc2ccc3c(c2C1=O)CCC3` (stereo not drawn), the EC50 was over 200 µM and the concentration for half-maximal inhibition (IC50) came to 33.1 µM.
As for `O=S(=O)(Nc1ccc(NS(=O)(=O)c2ccccc2)c(N2N=N2)c1)c1ccccc1`, the EC50 is over 200 µM and the IC50 amounted to 51.3 µM.
Take `Cc1cccc(-n2c(C)nc3ccc(NC(=S)Nc4ccccc4)cc3c2=O)c1`: the EC50 is over 200 µM and the IC50 was 110 µM.
As for `Cc1cn(C2CC3C(COC(=O)N3O)O2)c(=O)[nH]c1=O` (stereo not drawn), the EC50 was 50.1 µM and the concentration for half-maximal inhibition (IC50) is over 200 µM.
For `CC(=O)Nc1sccc1S(=O)(=O)c1ccc(Cl)cc1`, the EC50 is over 200 µM and the IC50 is over 200 µM.
For `C=C1C2CC[C@H]3C45C=NC[C@](C)(CCC4)[C@H]5CCC3(C2)[C@H]1O`, the outcome was inactive.
Take `COc1ccc(Cc2c3cc(OC)c(OC)cc3cc[n+]2C)cc1`: the EC50 was over 550 µM and the IC50 stood at 107 µM.
On to `CCN1CCN(c2nc3ccccc3c3c2CCOc2ccccc2-3)CC1`, for which the outcome was inactive.
With `COc1ccc(CC2C(=O)NC(=O)NC2=O)cc1OCc1ccccc1`, the outcome was inactive.
Take `COC(=O)N(CCc1ccccc1)C(C)(C)C#N`: the EC50 is over 29.5 µM and the IC50 is over 29.5 µM.
Take `CN1CC=C(c2c(N)nc(N)[nH]c2=O)CC1`: the EC50 is over 200 µM and the IC50 was over 200 µM.
For the compound `Cc1c2cccc1CSCc1cccc(c1C)CSC2`, the EC50 was over 123 µM and the IC50 was over 123 µM.
`O=C(N/N=C/c1ccccc1)c1c(F)c(F)c(F)c(F)c1F`: the EC50 was over 200 µM and the IC50 was 112 µM.
In the case of `CCCC1OP(=O)(N2CC(C)N(P3(=O)OCC(CC)C(CCC)O3)CC2C)OCC1CC` (stereo not drawn), the EC50 is over 200 µM and the IC50 is over 200 µM.
With `Cc1c(C(=O)CC(=O)C(=O)Nc2ccc(Cl)c(Cl)c2)[n+](=O)c2ccccc2n1[O-]`, the EC50 is over 6.31 µM and the IC50 is over 6.31 µM.
Take `Cc1cc(S(=O)(=O)Nc2n[nH]c(Nc3ccccc3)n2)c(SCC(=O)O)cc1Cl`: the EC50 was over 200 µM and the IC50 is over 200 µM.
As to `[O-][n+]1ccccc1CCN(O)Cc1ccccc1`, the EC50 was over 200 µM and the concentration for half-maximal inhibition (IC50) was over 200 µM.
For `COc1ccc2[nH]c(S(=O)(=O)N3CC(CCl)c4ccc(N)cc43)cc2c1` (stereo not drawn), the EC50 was over 0.2 µM and the IC50 was 0.102 µM.
Taken in the same sequence, the figures for `COC(=O)C(/C(=N/N)C(=O)Nc1cc(Cl)c(Cl)cc1Cl)c1nc2ccc(Cl)cc2[nH]c1=O` (stereo not drawn) were over 50.1 µM and over 50.1 µM.
As for `C=CCC12CC(C)OC1=Nc1ccccc1NC2=O` (stereo not drawn), the EC50 is over 200 µM and the IC50 was over 200 µM.
Take `CC1OC(OC2C(O)COC(OC3C(C)OC(OC4C(OC(=O)[C@]56CCC(C)(C)C[C@@H]5C5=CCC7[C@@]8(C)C[C@H](O)[C@H](OC9OC(CO)C(O)C(OC%10OC(CO)C(O)C(O)C%10O)C9O)[C@@](C)(CO)[C@@H]8CC[C@@]7(C)[C@]5(C)CC6)OCC(O)C4O)C(O)C3O)C2O)C(O)C(O)C1O` (stereo partly drawn): the EC50 was over 58.9 µM and the IC50 is 21.4 µM.
Consider `CCN(CC)C(=S)SCCCS(=O)(=O)O`, for which the result was inactive.
For `COc1ccc(/C(C)=N/NC(N)=O)cc1`, the EC50 is over 174 µM and the IC50 is over 174 µM.
